Assay results published in ChEMBL document CHEMBL1201862, “PubChem BioAssay data set” (2004).
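Each compound was tested at five concentrations against cells in 96-well plates for 48 hours. Here, GI50 denotes the concentration required for 50% inhibition of growth.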 The source made the active and inactive calls. No stated cut-off is given here; in the data, active = GI50 up to about 1.1 µM and inactive = higher.

How the values were obtained:
Test in all cases: inhibition of tumour cell growth, NCI panel, 48 h
SK-MEL-28 = tested on: SK-MEL-28
NCI-H23 = tested on: NCI-H23
DMS-114 = tested on: DMS-114
Malme-3M = tested on: Malme-3M
TK-10 = tested on: TK-10
HCT-15 = tested on: HCT-15
UO-31 = tested on: UO-31
COLO 205 = tested on: COLO 205
OVCAR-4 = tested on: OVCAR-4
CAKI-1 = tested on: CAKI-1
SNB-75 = tested on: SNB-75
KM-20L2 = tested on: KM-20L2
786-0 = tested on: 786-0
SF-539 = tested on: SF-539
DMS-273 = tested on: DMS-273
KM12 = tested on: KM12
HOP-92 = tested on: HOP-92
SNB-19 = tested on: SNB-19
U-251 = tested on: U-251
K562 = tested on: K562
SW-620 = tested on: SW-620
SN12C = tested on: SN12C
LOX IMVI = tested on: LOX IMVI
OVCAR-5 = tested on: OVCAR-5
SK-MEL-2 = tested on: SK-MEL-2
HL-60 = tested on: HL-60
HOP-62 = tested on: HOP-62
SNB-78 = tested on: SNB-78
LXFL 529 = tested on: LXFL 529
OVCAR-3 = tested on: OVCAR-3
IGROV-1 = tested on: IGROV-1
SR = tested on: SR
XF498 = tested on: XF498
NCI-H226 = tested on: NCI-H226
SF-295 = tested on: SF-295
NCI-H460 = tested on: NCI-H460
A549 = tested on: A549
DLD-1 = tested on: DLD-1
NCI-H522 = tested on: NCI-H522
HCT-116 = tested on: HCT-116
UACC-257 = tested on: UACC-257
OVCAR-8 = tested on: OVCAR-8
SF-268 = tested on: SF-268
M14 = tested on: M14
MOLT-4 = tested on: MOLT-4
RPMI-8226 = tested on: RPMI-8226
HT-29 = tested on: HT-29
HOP-18 = tested on: HOP-18
CCRF-CEM = tested on: CCRF-CEM
ACHN = tested on: ACHN
M19-MEL = tested on: M19-MEL
SK-MEL-5 = tested on: SK-MEL-5
RXF 393 = tested on: RXF 393
SK-OV-3 = tested on: SK-OV-3
UACC-62 = tested on: UACC-62
EKVX = tested on: EKVX
A498 = tested on: A498
HCC 2998 = tested on: HCC 2998

Measured: GI50

CN(C)CCS/C(=N\c1ccccc1)n1cccc1
inactive: SK-MEL-28 > 100 µM | NCI-H23 72.8 µM | DMS-114 26.3 µM | Malme-3M 89.5 µM | TK-10 > 100 µM | UO-31 32.2 µM | COLO 205 > 100 µM | OVCAR-4 > 100 µM | CAKI-1 > 100 µM | SNB-75 27.6 µM | KM-20L2 32.1 µM | 786-0 > 100 µM | SF-539 66.5 µM | DMS-273 62.5 µM | KM12 82.8 µM | HOP-92 24 µM | SNB-19 > 100 µM | U-251 > 100 µM | K562 53.6 µM | SW-620 > 100 µM | SN12C 54.1 µM | LOX IMVI 43.5 µM | OVCAR-5 > 100 µM | SK-MEL-2 44.7 µM | HL-60 32.7 µM | HOP-62 25.7 µM | SNB-78 22.2 µM | LXFL 529 42.7 µM | OVCAR-3 > 100 µM | IGROV-1 > 100 µM | SR 33.2 µM | XF498 > 100 µM | NCI-H226 22.3 µM | SF-295 > 100 µM | NCI-H460 > 100 µM | A549 > 100 µM | DLD-1 > 100 µM | NCI-H522 33.9 µM | HCT-116 > 100 µM | UACC-257 42.9 µM | OVCAR-8 > 100 µM | SF-268 32.4 µM | M14 > 100 µM | MOLT-4 49.9 µM | RPMI-8226 > 100 µM | HT-29 41.5 µM | HOP-18 > 100 µM | CCRF-CEM 57.7 µM | ACHN 78.5 µM | M19-MEL 83.9 µM | SK-MEL-5 35.9 µM | RXF 393 27.1 µM | SK-OV-3 > 100 µM | UACC-62 82.8 µM
98.4 µM: HCT-15

NC(=O)c1nc(-c2ccc(Cl)c(Cl)c2)nc2ccccc12
inactive: NCI-H23 39.7 µM | DMS-114 > 20.4 µM | Malme-3M 4.92 µM | TK-10 22.6 µM | COLO 205 > 100 µM | OVCAR-4 > 100 µM | CAKI-1 > 94.4 µM | SNB-75 2.68 µM | KM-20L2 > 100 µM | 786-0 3.69 µM | SF-539 13.4 µM | KM12 > 100 µM | HOP-92 1.56 µM | SNB-19 17.8 µM | U-251 > 28 µM | K562 > 31.6 µM | SW-620 > 22 µM | SN12C > 100 µM | LOX IMVI > 100 µM | OVCAR-5 > 100 µM | SK-MEL-2 9.42 µM | HL-60 > 100 µM | EKVX > 41.6 µM | HOP-62 > 21.9 µM | SNB-78 > 23.7 µM | LXFL 529 > 26.4 µM | IGROV-1 > 100 µM | SR > 100 µM | XF498 57.8 µM | NCI-H226 18 µM | NCI-H460 > 55.7 µM | A549 > 21.4 µM | DLD-1 > 22.8 µM | NCI-H522 > 100 µM | HCT-116 > 19.8 µM | UACC-257 > 29.1 µM | SF-268 19.1 µM | M14 > 100 µM | MOLT-4 > 100 µM | RPMI-8226 > 21.1 µM | A498 16.1 µM | HT-29 > 100 µM | HOP-18 34.8 µM | CCRF-CEM > 100 µM | ACHN > 20.8 µM | M19-MEL > 38.1 µM | SK-MEL-5 > 49.3 µM | RXF 393 12.5 µM | SK-OV-3 12.1 µM | UACC-62 > 24.9 µM
> 100 µM: HCT-15

Clc1cc(Cl)c2ns[s+]c2c1Cl
active: NCI-H23 0.132 µM | SNB-78 0.158 µM
inactive: SK-MEL-28 > 100 µM | Malme-3M 37.8 µM | TK-10 > 100 µM | UO-31 > 100 µM | COLO 205 > 100 µM | OVCAR-4 > 100 µM | CAKI-1 > 100 µM | SNB-75 43.4 µM | KM-20L2 > 100 µM | 786-0 > 100 µM | SF-539 > 100 µM | DMS-273 > 100 µM | KM12 > 100 µM | SNB-19 > 100 µM | U-251 > 100 µM | K562 > 100 µM | SW-620 > 100 µM | SN12C > 100 µM | LOX IMVI > 100 µM | OVCAR-5 > 100 µM | SK-MEL-2 > 100 µM | HL-60 > 100 µM | EKVX > 100 µM | HOP-62 > 100 µM | LXFL 529 > 100 µM | OVCAR-3 > 100 µM | IGROV-1 > 100 µM | SR > 100 µM | XF498 > 100 µM | NCI-H226 > 100 µM | SF-295 > 100 µM | NCI-H460 > 100 µM | A549 > 100 µM | DLD-1 > 100 µM | NCI-H522 > 100 µM | HCT-116 > 100 µM | HCC 2998 > 10 µM | UACC-257 > 100 µM | OVCAR-8 > 100 µM | SF-268 > 100 µM | M14 > 100 µM | MOLT-4 > 100 µM | A498 > 100 µM | HT-29 > 100 µM | HOP-18 78.3 µM | CCRF-CEM > 100 µM | ACHN > 100 µM | M19-MEL > 100 µM | SK-MEL-5 > 100 µM | RXF 393 > 100 µM | SK-OV-3 > 100 µM | UACC-62 > 100 µM

CN(C(=O)c1ccco1)C(=S)N1CCN(c2ccccc2)CC1
inactive: SK-MEL-28 > 100 µM | NCI-H23 > 100 µM | DMS-114 > 100 µM | Malme-3M > 100 µM | TK-10 > 100 µM | UO-31 > 100 µM | COLO 205 > 100 µM | OVCAR-4 > 100 µM | CAKI-1 > 100 µM | SNB-75 > 100 µM | KM-20L2 > 100 µM | 786-0 > 100 µM | SF-539 > 100 µM | DMS-273 > 100 µM | KM12 > 100 µM | HOP-92 > 100 µM | SNB-19 > 100 µM | U-251 > 100 µM | K562 > 100 µM | SW-620 > 100 µM | SN12C > 100 µM | LOX IMVI > 100 µM | OVCAR-5 > 100 µM | SK-MEL-2 > 100 µM | HL-60 > 100 µM | HOP-62 > 100 µM | LXFL 529 > 100 µM | OVCAR-3 > 100 µM | IGROV-1 > 100 µM | SR > 100 µM | XF498 > 100 µM | NCI-H226 71.3 µM | SF-295 > 100 µM | NCI-H460 > 100 µM | A549 > 100 µM | DLD-1 > 100 µM | NCI-H522 > 100 µM | HCT-116 > 100 µM | UACC-257 > 100 µM | OVCAR-8 > 100 µM | SF-268 > 100 µM | M14 > 100 µM | MOLT-4 > 100 µM | RPMI-8226 > 100 µM | HT-29 > 100 µM | HOP-18 > 100 µM | CCRF-CEM > 100 µM | ACHN > 100 µM | M19-MEL > 100 µM | SK-MEL-5 > 100 µM | RXF 393 > 100 µM | SK-OV-3 > 100 µM | UACC-62 > 100 µM
> 100 µM: HCT-15

O=C(OC/C=C1C=C(OC(=O)c2ccccc2)/C(=N/N(C(=O)c2ccccc2)c2ccccc2)O\1)c1ccccc1
inactive: DMS-114 12.8 µM | SNB-78 26.3 µM | XF498 15.8 µM | RXF 393 2.12 µM
active: CAKI-1 < 0.01 µM | KM12 < 0.01 µM | SNB-19 < 0.01 µM | K562 < 0.01 µM | SR < 0.01 µM | NCI-H226 0.512 µM | HCC 2998 < 0.01 µM | MOLT-4 < 0.01 µM | RPMI-8226 < 0.01 µM | HOP-18 < 0.01 µM

Cn1cnc([N+](=O)[O-])c1Sc1nnnn1C
inactive: SK-MEL-28 14.3 µM | NCI-H23 19.6 µM | DMS-114 17 µM | Malme-3M 13.2 µM | TK-10 17.5 µM | UO-31 15.3 µM | COLO 205 12.8 µM | OVCAR-4 16.9 µM | CAKI-1 17.1 µM | SNB-75 25.3 µM | 786-0 17.6 µM | SF-539 18.2 µM | DMS-273 17.7 µM | KM12 56.9 µM | HOP-92 12.3 µM | SNB-19 > 100 µM | U-251 18 µM | K562 16.7 µM | SW-620 13.1 µM | SN12C 16.3 µM | LOX IMVI 13.4 µM | OVCAR-5 23.9 µM | SK-MEL-2 16.9 µM | EKVX 18.3 µM | HOP-62 > 100 µM | SNB-78 12.7 µM | LXFL 529 12.1 µM | OVCAR-3 15.9 µM | IGROV-1 19.5 µM | SR 11.4 µM | XF498 15.6 µM | NCI-H226 44.7 µM | SF-295 > 100 µM | NCI-H460 39.8 µM | A549 99.5 µM | DLD-1 14.5 µM | NCI-H522 6.38 µM | HCT-116 14.9 µM | HCC 2998 23.6 µM | UACC-257 16.3 µM | OVCAR-8 17.2 µM | SF-268 21.5 µM | M14 14.8 µM | MOLT-4 9.12 µM | RPMI-8226 23 µM | A498 65.6 µM | HT-29 19.4 µM | HOP-18 9.86 µM | CCRF-CEM 7.46 µM | ACHN 16.2 µM | M19-MEL 15.7 µM | SK-MEL-5 17.3 µM | SK-OV-3 > 100 µM | UACC-62 17.1 µM
